From patent publication US20140221424A1, “PHARMACEUTICAL COMPOSITIONS FOR USE IN THE TREATMENT OF CYSTIC FIBROSIS” (Vertex Pharmaceuticals Incorporated, priority 2013, published 2014)
In brackets after ≈: the same amount, converted by molar mass. Like-named read-outs stand apart in the source and are kept apart here.

How the values were obtained:
[1] = test system: CYP3A; test: Drug interaction studies: other drugs on ivacaftor exposure; assay type: in vivo, human
Protocol: Drug interaction studies were performed with KALYDECO™ and other drugs likely to be co-administered or drugs commonly used as probes for pharmacokinetic interaction studies [see Drug Interactions (subsection 7 of section V)].
(§1) The data obtained for KALYDECO™ without co-administration of inducers or inhibitors are used as reference.

[2] = test system: rats; test: Teratogenicity in rats; assay type: in vivo, rat; details: maternal dose 200 mg/kg/day, approximately 6 times the MRHD
Source text: (§2) There are no adequate and well-controlled studies of KALYDECO™ in pregnant women. […] Because animal reproduction studies are not always predictive of human response, KALYDECO™ should be used during pregnancy only if clearly needed.

[3] = test system: rabbits; test: Teratogenicity in rabbits; assay type: in vivo, rabbit; details: maternal dose 100 mg/kg/day, approximately 12 times the MRHD
Source text: as §2

[4] = test system: pregnant rats; test: Placental transfer in pregnant rats; assay type: in vivo, rat
Source text: as §2

[5] = test system: pregnant rabbits; test: Placental transfer in pregnant rabbits; assay type: in vivo, rabbit
Source text: as §2

[6] = test system: lactating female rats; test: Excretion into milk of lactating rats; assay type: in vivo, rat
Protocol: Excretion of ivacaftor into human milk is probable. There are no human studies that have investigated the effects of ivacaftor on breast-fed infants. Caution should be exercised when KALYDECO™ is administered to a nursing person.

[7] = test system: healthy subjects; test: Thorough QT study (ECG evaluation); assay type: in vivo, human; details: 150 mg and 450 mg twice daily, 72 healthy subjects
Protocol: The highest repeated dose was 450 mg (in a tablet formulation) every 12 hours for 4.5 days (9 doses) in a trial evaluating the effect of KALYDECO™ on ECGs in healthy subjects.
The effect of multiple doses of ivacaftor 150 mg and 450 mg twice daily on QTc interval was evaluated in a randomized, placebo- and active-controlled (moxifloxacin 400 mg) four-period crossover thorough QT study in 72 healthy subjects.

[8] = Solubility in water; assay type: physicochemical; details: practically insoluble
Source text: Ivacaftor is a white to off-white powder that is practically insoluble in water (<0.05 microgram/mL).

[9] = Clinical pharmacokinetics after oral administration; assay type: in vivo, human
Protocol: After every 12 hour dosing, steady-state plasma concentrations of ivacaftor were reached by days 3 to 5, with an accumulation ratio ranging from 2.2 to 2.9.
The exposure of ivacaftor increased approximately 2- to 4-fold when given with food containing fat. Therefore, KALYDECO™ should be administered with fat-containing food. Examples of fat-containing foods include eggs, butter, peanut butter, and cheese pizza. The median (range) tmax is approximately 4.0 (3.0; 6.0) hours in the fed state.
The mean apparent volume of distribution (Vz/F) of ivacaftor after a single dose of 275 mg of KALYDECO™ in the fed state was similar for healthy subjects and patients with CF. After oral administration of 150 mg every 12 hours for 7 days to healthy volunteers in a fed state, the mean (±SD) for apparent volume of distribution was 353 (122) L.
(§3) Following oral administration, the majority of ivacaftor (87.8%) is eliminated in the feces after metabolic conversion. The major metabolites M1 and M6 accounted for approximately 65% of the total dose eliminated with 22% as M1 and 43% as M6. There was negligible urinary excretion of ivacaftor as unchanged parent. […] The mean apparent clearance (CL/F) of ivacaftor was similar for healthy subjects and patients with CF.

[10] = Plasma protein binding; assay type: in vitro ADME; details: human
Source text: Ivacaftor is approximately 99% bound to plasma proteins, primarily to alpha 1-acid glycoprotein and albumin.

[11] = test system: human red blood cells; test: Binding to red blood cells; assay type: in vitro ADME
[12] = test system: CYP3A enzymes (i.e., CYP3A4 and CYP3A5); test: Metabolism by CYP3A (in vitro and clinical studies); assay type: in vitro ADME, human; details: for substrate of CYP3A enzymes (CYP3A4 and CYP3A5): in vitro studies
Source text: (§4) Ivacaftor is extensively metabolized in humans. […] M1 and M6 are the two major metabolites of ivacaftor in humans. M1 has approximately one-sixth the potency of ivacaftor and is considered pharmacologically active. M6 has less than one-fiftieth the potency of ivacaftor and is not considered pharmacologically active.
as §1

[13] = Elimination / human PK study with radioactivity; assay type: in vivo; details: for share of the total dose eliminated as this metabolite: po
Source text: as §3
KALYDECO™ has not been studied in patients with mild, moderate or severe renal impairment (creatinine clearance less than or equal to 30 mL/min) or in patients with end stage renal disease. No dose adjustments are recommended for mild and moderate renal impairment patients because of minimal elimination of ivacaftor and its metabolites in urine (only 6.6% of total radioactivity was recovered in the urine in a human PK study); however, caution is recommended when administering KALYDECO™ to patients with severe renal impairment or end stage renal disease.

[14] = Pharmacokinetics in moderate hepatic impairment; assay type: in vivo, human
Protocol: Therefore, a reduced KALYDECO™ dose of 150 mg once daily is recommended for patients with moderate hepatic impairment. The impact of mild hepatic impairment (Child-Pugh Class A) on pharmacokinetics of ivacaftor has not been studied, but the increase in ivacaftor AUC0-∞ is expected to be less than two-fold. Therefore, no dose adjustment is necessary for patients with mild hepatic impairment. The impact of severe hepatic impairment (Child-Pugh Class C, score 10-15) on pharmacokinetics of ivacaftor has not been studied. […] When benefits are expected to outweigh the risks, KALYDECO™ should be used with caution in patients with severe hepatic impairment at a dose of 150 mg given once daily or less frequently.
Therefore, a reduced dose of 150 mg once daily is recommended in patients with moderate hepatic impairment.

[15] = test system: mice; test: Two-year carcinogenicity study in mice; assay type: in vivo, mouse; details: oral doses up to 200 mg/kg/day
Protocol: (§5) Two-year studies were conducted in mice and rats to assess carcinogenic potential of KALYDECO™.

[16] = test system: rats; test: Two-year carcinogenicity study in rats; assay type: in vivo, rat; details: oral doses up to 50 mg/kg/day
Protocol: as §5

[17] = test system: bacterial gene mutation; test: Ames test for bacterial gene mutation; assay type: cell-based
Source text: (§6) Ivacaftor was negative for genotoxicity in the following assays: Ames test for bacterial gene mutation, in vitro chromosomal aberration assay in Chinese hamster ovary cells, and in vivo mouse micronucleus test.

[18] = test system: Chinese hamster ovary cells; test: In vitro chromosomal aberration assay; assay type: cell-based; details: CHO cells
Source text: as §6

[19] = test system: mouse; test: In vivo mouse micronucleus test
Source text: as §6

[20] = test system: male and female rats; test: Fertility and reproductive performance in rats; assay type: in vivo, rat
Protocol: Ivacaftor impaired fertility and reproductive performance indices in male and female rats at 200 mg/kg/day (approximately 5 and 6 times, respectively, the MRHD based on summed AUCs of ivacaftor and its metabolites). […] These impairments of fertility and reproductive performance in male and female rats at 200 mg/kg/day were attributed to severe toxicity.

[21] = test system: juvenile rats; test: Juvenile rat toxicology; assay type: in vivo; details: juvenile rats dosed postnatal day 7-35, 10 mg/kg/day and higher
Source text: This finding has not been observed in older animals.

[22] = test system: patients with a G551D mutation; test: Population PK/PD analysis (Emax model) of FEV1 versus ivacaftor exposure; set-up: species or system human; details: pooled Phase 2a and Phase 3 data
Source text: Therefore, median Cmin at EC90 was chosen as the target PK parameter for efficacy.

[23] = target: T1, G551D-CFTR protein (Homo sapiens, UniProt P13569, G551D); test: CFTR-mediated transepithelial current (IT) in rodent cells expressing G551D-CFTR; assay type: cell-based; set-up: expressed in transfected cells
T1 sequence (P13569 whole entry G551D): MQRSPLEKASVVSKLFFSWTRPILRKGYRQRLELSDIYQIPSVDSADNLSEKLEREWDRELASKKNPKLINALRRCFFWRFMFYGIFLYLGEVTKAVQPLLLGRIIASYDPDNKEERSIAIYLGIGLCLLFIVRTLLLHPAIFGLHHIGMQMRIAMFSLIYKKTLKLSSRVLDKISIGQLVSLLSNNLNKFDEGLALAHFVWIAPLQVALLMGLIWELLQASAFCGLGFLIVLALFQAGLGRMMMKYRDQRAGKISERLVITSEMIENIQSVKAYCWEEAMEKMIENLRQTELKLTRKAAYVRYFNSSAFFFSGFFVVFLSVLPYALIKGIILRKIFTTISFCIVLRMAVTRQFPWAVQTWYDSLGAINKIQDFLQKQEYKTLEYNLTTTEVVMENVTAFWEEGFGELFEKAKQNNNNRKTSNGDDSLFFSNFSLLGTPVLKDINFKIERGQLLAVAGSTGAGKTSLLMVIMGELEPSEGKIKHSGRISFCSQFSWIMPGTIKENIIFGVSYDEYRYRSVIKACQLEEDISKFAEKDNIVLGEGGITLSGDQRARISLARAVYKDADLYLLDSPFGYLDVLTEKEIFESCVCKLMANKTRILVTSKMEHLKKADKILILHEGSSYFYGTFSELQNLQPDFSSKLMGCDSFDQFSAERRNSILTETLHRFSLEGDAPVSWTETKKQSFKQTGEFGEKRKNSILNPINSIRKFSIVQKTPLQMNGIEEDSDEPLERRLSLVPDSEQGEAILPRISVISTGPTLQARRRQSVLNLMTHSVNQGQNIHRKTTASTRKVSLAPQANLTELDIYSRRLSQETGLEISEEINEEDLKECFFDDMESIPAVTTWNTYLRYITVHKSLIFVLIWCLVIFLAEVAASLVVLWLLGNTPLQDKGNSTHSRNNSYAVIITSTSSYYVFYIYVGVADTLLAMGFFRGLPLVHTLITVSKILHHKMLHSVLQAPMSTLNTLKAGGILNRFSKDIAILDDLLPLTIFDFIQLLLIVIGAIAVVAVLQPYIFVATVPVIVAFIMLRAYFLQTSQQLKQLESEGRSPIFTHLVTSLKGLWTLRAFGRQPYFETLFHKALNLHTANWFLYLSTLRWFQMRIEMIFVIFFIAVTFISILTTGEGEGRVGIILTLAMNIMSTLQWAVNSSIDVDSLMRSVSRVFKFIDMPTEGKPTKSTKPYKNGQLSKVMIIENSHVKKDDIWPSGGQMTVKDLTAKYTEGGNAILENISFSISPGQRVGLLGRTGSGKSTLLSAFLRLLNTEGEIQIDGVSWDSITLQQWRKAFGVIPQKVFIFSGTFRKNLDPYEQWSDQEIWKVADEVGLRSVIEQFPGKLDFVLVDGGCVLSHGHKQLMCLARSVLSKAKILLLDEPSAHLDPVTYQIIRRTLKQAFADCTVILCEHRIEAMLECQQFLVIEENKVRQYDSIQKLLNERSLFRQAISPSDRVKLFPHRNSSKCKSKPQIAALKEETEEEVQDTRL

[24] = target: T1, G551D-CFTR protein; test: Single channel patch clamp, membrane patches from rodent cells expressing G551D-CFTR; assay type: biochemical; set-up: expressed in transfected cells; details: versus untreated cells, after addition of PICA and ATP
[25] = target: T1, G551D-CFTR protein; test: Transepithelial current (IT) in human bronchial epithelial cells expressing G551D-CFTR; assay type: cell-based; set-up: endogenous in cells; host or cells: human bronchial epithelial cells
[26] = Potency of metabolites relative to ivacaftor
Source text: as §4

[27] = moderately impaired hepatic function (Child-Pugh Class B, score 7 to 9)
[28] = rats, 200 mg/kg/day, dams dosed prior to and during early pregnancy

## CC(C)(C)c1cc(C(C)(C)C)c(NC(=O)c2c[nH]c3ccccc3c2=O)cc1O [Ivacaftor, N-[2,4-bis(1,1-dimethylethyl)-5-hydroxyphenyl]-1,4-dihydro-4-oxoquinoline-3-carboxamide]
[1]; co-administration with fluconazole, a moderate inhibitor of CYP3A
  increase of ivacaftor exposure: 3 fold
[1]; co-administration with ketoconazole, a strong CYP3A inhibitor
  increase of ivacaftor exposure (AUC): 8.5 fold
[1]; co-administration with rifampin, a strong CYP3A inducer
  decrease of ivacaftor exposure (AUC): approximately 9 fold
[2]
  teratogenic effects: not teratogenic
[3]
  teratogenic effects: not teratogenic
[4]
  placental transfer: observed
[5]
  placental transfer: observed
[6]
  excretion into milk: excreted into the milk
[7]
  upper bound of the one-sided 95% confidence interval for the largest placebo adjusted, baseline-corrected QTcF: below 10 ms
[8]
  solubility: < 0.05 µg/mL
[9]; 150 mg orally every 12 hours for 7 days, healthy volunteers, fed state
  apparent volume of distribution, mean (±SD): 353 (122) L
[9]; human, in vivo
  increase of exposure when given with food containing fat: 2-4 fold
  mean apparent clearance (CL/F), healthy subjects versus patients with CF: similar
  pharmacokinetics, healthy adult volunteers versus patients with CF: similar
[9]; human, in vivo, fed state, read-out: median (range) tmax
  Tmax: ~4 h
[9]; human, in vivo, following a single dose, read-out: apparent terminal half-life (converted)
  half-life: ~12 h
[9]; human, in vivo, single 150 mg oral dose, healthy volunteers, fed state, read-out: AUC, mean (±SD)
  AUC: 10600 ng·h/mL
[9]; human, in vivo, single 150 mg oral dose, healthy volunteers, fed state, read-out: Cmax, mean (±SD)
  Cmax: 768 ng/mL
[9]; human, in vivo, single 150 mg oral dose, healthy volunteers, fed state, read-out: time of peak plasma concentrations (Tmax)
  Tmax: ~4 h
[9]; single dose of 275 mg, fed state
  mean apparent volume of distribution (Vz/F), healthy subjects versus patients with CF: similar
[10]
  fraction unbound: ~0.01
[11]
  binding to human red blood cells: does not bind
[12]; in vitro and clinical studies
  primary route of metabolism: primarily metabolized by CYP3A
[12]
  substrate of CYP3A enzymes (CYP3A4 and CYP3A5): substrates
[13]; in vivo
  urinary excretion as unchanged parent: negligible
[13]; ivacaftor and its metabolites, human PK study
  total radioactivity recovered in the urine: 6.6%
[14]; human, in vivo, oral, single dose of 150 mg, moderately impaired hepatic function, read-out: AUC0-∞, mean (±SD)
  AUC(0-inf): 16800 ng·h/mL
[14]; human, in vivo, oral, single dose of 150 mg, moderately impaired hepatic function, read-out: Cmax, mean (±SD)
  Cmax: 735 ng/mL
[14]; [27]
  Cmax compared with healthy subjects matched for demographics: similar
  increase in AUC0-∞ compared with healthy subjects matched for demographics: approximately two-fold
[15]
  tumorigenicity: No evidence of tumorigenicity
[16]
  tumorigenicity: No evidence of tumorigenicity
[17]
  genotoxicity: negative
[18]
  genotoxicity: negative
[19]
  genotoxicity: negative
[20]; female rats, 200 mg/kg/day
  prolonged diestrus: Increases
[20]; male and female rats, 200 mg/kg/day, attributed to severe toxicity
  fertility and reproductive performance indices: impaired
[20]; male or female rats, ≦100 mg/kg/day (approximately 3 times the MRHD)
  fertility and reproductive performance indices: No effects
[20]; [28]
  corpora lutea, implantations, and viable embryos: decreased
  number of females with all nonviable embryos: increased
[21]
  cataracts: Cataracts were seen
[22]
  EC50, FEV1 versus ivacaftor exposure, Emax model: 0.045 µg/mL (≈ 0.115 µM)
  EC90, FEV1 versus ivacaftor exposure, Emax model: 0.405 µg/mL (≈ 1.03 µM)
[23]
  increase of IT in the absence of cAMP agonist: did not increase
[23]; following addition of a cAMP agonist, read-out: EC50, increase of CFTR-mediated transepithelial current (IT)
  EC50: 100 ± 47 nM
[24]
  increase of open probability of G551D-CFTR protein: 6 fold
[25]
  EC50: 236 ± 200 nM
[25]; human bronchial epithelial cells expressing G551D-CFTR, following addition of a cAMP agonist
  increase of IT: 10 fold

## CC(C)(C)c1cc(C(C)(C)C(=O)O)c(O)cc1NC(=O)c1c[nH]c2ccccc2c1=O [M6]
[26]
  potency relative to ivacaftor: less than one-fiftieth
[13]; in vivo
  share of the total dose eliminated as this metabolite: 43%

## CC(C)(C)c1cc(C(C)(C)CO)c(O)cc1NC(=O)c1c[nH]c2ccccc2c1=O [M1, hydroxymethyl-ivacaftor]
[1]; ivacaftor co-administered with fluconazole
  increase of M1 exposure: 1.9 fold
[1]; ivacaftor co-administered with ketoconazole
  increase of M1 exposure: 1.7 fold
[12]
  substrate of CYP3A enzymes (CYP3A4 and CYP3A5): substrates
[26]
  potency relative to ivacaftor: approximately one-sixth
[13]; in vivo
  share of the total dose eliminated as this metabolite: 22%
